Target: Calcium/calmodulin-dependent protein kinase type II subunit alpha (Rattus norvegicus, UniProt P11275)
Test: Displacement of [3H]NCS-382 from CaMK2alpha in rat brain cortical membrane homogenates measured after 1 hr by TopCount scintillation counting method

Calcium/calmodulin-dependent protein kinase type II subunit alpha, sequence (P11275 whole entry): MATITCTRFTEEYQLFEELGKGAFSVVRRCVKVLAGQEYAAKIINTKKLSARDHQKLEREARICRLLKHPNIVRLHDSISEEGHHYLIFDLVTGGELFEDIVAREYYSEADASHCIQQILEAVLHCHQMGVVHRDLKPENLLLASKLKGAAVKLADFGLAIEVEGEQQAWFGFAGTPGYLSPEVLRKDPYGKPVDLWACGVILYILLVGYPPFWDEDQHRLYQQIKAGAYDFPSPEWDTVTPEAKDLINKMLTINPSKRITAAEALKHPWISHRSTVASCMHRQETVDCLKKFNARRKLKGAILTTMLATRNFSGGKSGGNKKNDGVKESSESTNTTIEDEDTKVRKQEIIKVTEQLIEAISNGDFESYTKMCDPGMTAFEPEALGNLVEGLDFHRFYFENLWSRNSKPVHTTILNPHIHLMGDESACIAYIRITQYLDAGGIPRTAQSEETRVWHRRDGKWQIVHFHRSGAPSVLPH

O=C(O)/C=C1\CCCc2cc(I)ccc2C1O (stereo unspecified)
Ki: 50 nM
